Results taken from ChEMBL document CHEMBL1681750, “Cofactor-type inhibitors of inosine monophosphate dehydrogenase via modular approach: targeting the pyrophosphate binding sub-domain” (Bioorg Med Chem, 2011).

Experiments:
[1] = target: Inosine-5'-monophosphate dehydrogenase 1 (Homo sapiens, UniProt P20839); experiment: Inhibition of human IMPDH1 by Spectrophotometry
[2] = tested on: K562; experiment: Antiproliferative activity against human K562 cells after 72 hrs by MTS assay; assay type: functional, cell-based; settings: K562, 72 h

Inosine-5'-monophosphate dehydrogenase 1, sequence (P20839 whole entry): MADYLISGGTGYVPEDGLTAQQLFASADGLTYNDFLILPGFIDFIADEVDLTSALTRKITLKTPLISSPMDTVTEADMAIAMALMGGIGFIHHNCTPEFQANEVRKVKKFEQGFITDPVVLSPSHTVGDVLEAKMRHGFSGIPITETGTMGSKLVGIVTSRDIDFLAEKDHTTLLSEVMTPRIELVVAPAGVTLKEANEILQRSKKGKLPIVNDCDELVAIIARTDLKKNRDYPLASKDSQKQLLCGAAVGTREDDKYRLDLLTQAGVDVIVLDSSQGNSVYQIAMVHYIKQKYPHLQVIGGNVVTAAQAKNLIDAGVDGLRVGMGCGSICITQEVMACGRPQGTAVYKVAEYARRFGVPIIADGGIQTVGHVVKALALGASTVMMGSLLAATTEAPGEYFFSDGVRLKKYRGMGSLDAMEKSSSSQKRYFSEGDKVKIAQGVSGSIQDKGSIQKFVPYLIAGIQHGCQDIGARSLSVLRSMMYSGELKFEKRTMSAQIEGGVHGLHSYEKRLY

| Structure (SMILES) | Ki [1] [µM] | IC50 [2] [µM] |
| --- | --- | --- |
| CCc1nc(N)c2ncn([C@H]3O[C@@H](COP(=O)(O)OP(=O)(O)OC[C@H]4O[C@@H](c5nc(C(N)=O)cs5)[C@H](O)[C@@H]4O)[C@H](O)[C@@H]3O)c2n1 | 0.001 | – |
| NC(=O)c1csc([C@@H]2O[C@H](CNS(=O)(=O)CS(=O)(=O)NC[C@@H]3O[C@H](n4cnc5c(N)ncnc54)[C@@H](O)[C@H]3O)[C@@H](O)[C@H]2O)n1 | 23.6 | > 100 |

Next, values leading:

| Ki [1] [µM] | IC50 [2] [µM] | Structure (SMILES) |
| --- | --- | --- |
| 0.013 | 4.7 | CCc1nc(N)c2ncn([C@H]3O[C@@H](COP(=O)(O)C(F)(F)P(=O)(O)OC[C@H]4O[C@@H](c5nc(C(N)=O)cs5)[C@H](O)[C@@H]4O)[C@H](O)[C@@H]3O)c2n1 |
| 14.2 | > 100 | NC(=O)c1csc([C@@H]2O[C@H](COP(=O)(O)CC(=O)NC[C@@H]3O[C@H](n4cnc5c(N)ncnc54)[C@@H](O)[C@H]3O)[C@@H](O)[C@H]2O)n1 |
| 5.55 | > 100 | COc1c(C)c2c(c(O)c1CCOP(=O)(O)CCP(=O)(O)O)C(=O)OC2 [MYCOPHENOLIC ETHYLENEBIS] |
